Data reported in US10758534B2 (Vertex Pharmaceuticals Incorporated, priority 2014, dated 2020).

These molecules were tested against T1, F508del (Homo sapiens, UniProt P13569, DEL508-508) (assay: Protocol 2: FRET membrane potential optical assay (VIPR), identification of correction compounds). Conditions: Table 3; compounds of Table 1 as modulators of CFTR activity; protocol not stated.
T1 construct: expressed in transfected cells
Assay type: cell-based
Summary of the method: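 Corrector readout: membrane-potential FRET (CC2-DMPE donor, DiSBAC2(3) acceptor) on VIPR II after Cl⁻-free gluconate bath with 10 μM forskolin and 20 μM genistein. Before this, F508del-expressing NIH3T3 cells were exposed to test compound for 16 h at 37 °C without serum; 27 °C incubation served as temperature-correction control.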

T1 sequence (P13569 with tags, fused parts or gaps DEL508-508): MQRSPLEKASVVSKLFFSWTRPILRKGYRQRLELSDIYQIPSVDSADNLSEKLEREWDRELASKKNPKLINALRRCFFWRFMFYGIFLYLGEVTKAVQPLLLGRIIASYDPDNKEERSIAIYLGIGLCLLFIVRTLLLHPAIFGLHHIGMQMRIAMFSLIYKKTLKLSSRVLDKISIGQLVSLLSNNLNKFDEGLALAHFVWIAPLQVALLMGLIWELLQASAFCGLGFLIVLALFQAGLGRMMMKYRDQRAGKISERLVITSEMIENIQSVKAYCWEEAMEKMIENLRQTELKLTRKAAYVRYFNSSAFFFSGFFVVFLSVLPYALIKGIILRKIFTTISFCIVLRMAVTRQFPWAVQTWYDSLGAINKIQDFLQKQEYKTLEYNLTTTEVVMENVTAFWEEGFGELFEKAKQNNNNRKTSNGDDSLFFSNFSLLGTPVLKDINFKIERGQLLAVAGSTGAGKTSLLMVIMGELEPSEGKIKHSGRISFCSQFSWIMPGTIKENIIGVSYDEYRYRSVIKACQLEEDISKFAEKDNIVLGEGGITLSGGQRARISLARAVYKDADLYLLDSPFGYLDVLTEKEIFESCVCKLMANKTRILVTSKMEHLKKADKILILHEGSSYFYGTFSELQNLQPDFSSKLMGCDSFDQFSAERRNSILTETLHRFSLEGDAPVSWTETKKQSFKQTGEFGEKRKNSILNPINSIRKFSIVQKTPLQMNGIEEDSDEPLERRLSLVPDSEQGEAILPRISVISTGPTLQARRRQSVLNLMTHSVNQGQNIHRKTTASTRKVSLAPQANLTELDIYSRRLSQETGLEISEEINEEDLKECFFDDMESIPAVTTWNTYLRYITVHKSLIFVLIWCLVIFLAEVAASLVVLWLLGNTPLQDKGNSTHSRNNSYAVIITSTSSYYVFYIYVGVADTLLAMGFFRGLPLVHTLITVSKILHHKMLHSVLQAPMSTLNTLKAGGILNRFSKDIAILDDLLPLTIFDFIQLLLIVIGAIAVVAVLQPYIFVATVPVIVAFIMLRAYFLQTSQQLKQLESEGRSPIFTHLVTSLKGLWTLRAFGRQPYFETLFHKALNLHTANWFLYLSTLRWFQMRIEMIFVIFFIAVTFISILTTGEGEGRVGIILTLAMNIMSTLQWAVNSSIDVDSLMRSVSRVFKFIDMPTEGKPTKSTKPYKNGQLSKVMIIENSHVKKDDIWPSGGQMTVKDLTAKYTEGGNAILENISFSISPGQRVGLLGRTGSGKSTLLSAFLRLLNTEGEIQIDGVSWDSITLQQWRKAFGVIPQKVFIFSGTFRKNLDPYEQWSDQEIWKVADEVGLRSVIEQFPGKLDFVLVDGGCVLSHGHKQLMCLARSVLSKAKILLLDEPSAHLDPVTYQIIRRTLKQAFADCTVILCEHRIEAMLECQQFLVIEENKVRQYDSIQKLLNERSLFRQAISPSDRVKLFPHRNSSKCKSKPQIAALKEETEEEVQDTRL

| SMILES | EC30 |
| --- | --- |
| Cc1cc(C)c(Cn2nc(C(C)(C)C)cc2C(=O)NS(=O)(=O)c2cccc(N)c2C)c(C)c1 [Compound 123, N-(3-amino-2-methyl-phenyl)sulfonyl-5-tert-butyl-2-[(2,4,6-trimethylphenyl)methyl]pyrazole-3-carboxamide] | +++ (“+++” means <3 uM) |
| Cc1cc(C)c(Oc2nc(C)c(C#N)cc2C(=O)NS(=O)(=O)c2cccc(N)c2)c(C)c1 [Compound 124, N-(3-aminophenyl)sulfonyl-5-cyano-6-methyl-2-(2,4,6-trimethylphenoxy)pyridine-3-carboxamide] | ++ (“++” means between 3 uM and 10 uM) |
| Cc1cc(C)c(Oc2nc(-c3cccc(OCC(C)C)c3)ccc2C(=O)NS(=O)(=O)c2ccc[nH]c2=O)c(C)c1 [Compound 125, 6-(3-isobutoxyphenyl)-N-[(2-oxo-1H-pyridin-3-yl)sulfonyl]-2-(2,4,6-trimethylphenoxy)pyridine-3-carboxamide] | ++ (“++” means between 3 uM and 10 uM) |
| CC(C)(C)c1ccc(C(=O)NS(=O)(=O)c2cccc(N)c2)c(-c2ccc(C(F)(F)F)cc2)n1 [Compound 129, N-(3-aminophenyl)sulfonyl-6-tert-butyl-2-[4-(trifluoromethyl)phenyl]pyridine-3-carboxamide] | ++ (“++” means between 3 uM and 10 uM) |
| CC(C)(C)c1ccc(C(=O)NS(=O)(=O)c2ccccc2)c(OCc2ccccc2)n1 [Compound 130, N-(benzenesulfonyl)-2-benzyloxy-6-tert-butyl-pyridine-3-carboxamide] | +++ (“+++” means <3 uM) |

Further lines, results first:

| EC30 | SMILES |
| --- | --- |
| ++ (“++” means between 3 uM and 10 uM) | Cc1cc(C)c(Cn2c(C(=O)NS(=O)(=O)c3cccc(N)c3)c(C)c3ccccc32)c(C)c1 [Compound 118, N-(3-aminophenyl)sulfonyl-3-methyl-1-[(2,4,6-trimethylphenyl)methyl]indole-2-carboxamide] |
| +++ (“+++” means <3 uM) | Cc1cccc(C)c1Cn1nc(-c2ccc(C(F)F)cc2)cc1C(=O)NS(=O)(=O)c1ccccc1 [Compound 119, N-(benzenesulfonyl)-5-[4-(difluoromethyl)phenyl]-2-[(2,6-dimethylphenyl)methyl]pyrazole-3-carboxamide] |
| +++ (“+++” means <3 uM) | COc1cccc2c1cc(C(=O)NS(=O)(=O)c1cccc(N)c1)n2Cc1c(C)cc(C)cc1C [Compound 120, N-(3-aminophenyl)sulfonyl-4-methoxy-1-[(2,4,6-trimethylphenyl)methyl]indole-2-carboxamide] |
| ++ (“++” means between 3 uM and 10 uM) | Cc1cc(C)c(CN2Cc3ccccc3C2C(=O)NS(=O)(=O)c2ccc(N)cc2)c(C)c1 (stereo not shown) [Compound 121, N-(4-aminophenyl)sulfonyl-2-[(2,4,6-trimethylphenyl)methyl]isoindoline-1-carboxamide] |
| ++ (“++” means between 3 uM and 10 uM) | COc1ncccc1-c1cc(C(=O)NS(=O)(=O)c2cccc(N)c2)n(Cc2c(C)cc(C)cc2C)n1 [Compound 122, N-(3-aminophenyl)sulfonyl-5-(2-methoxy-3-pyridyl)-2-[(2,4,6-trimethylphenyl)methyl]pyrazole-3-carboxamide] |
| +++ (“+++” means <3 uM) | Cc1cc(C)c(CN2Cc3ccccc3[C@H]2C(=O)NS(=O)(=O)c2cccc(N)c2)c(C)c1 [Compound 126, (1S)—N-(3-aminophenyl)sulfonyl-2-[(2,4,6-trimethylphenyl)methyl]isoindoline-1-carboxamide] |
| +++ (“+++” means <3 uM) | Cc1cc(C)c(Cn2c(C(=O)NS(=O)(=O)c3ccccc3)cc3c(Cl)cccc32)c(C)c1 [Compound 127, N-(benzenesulfonyl)-4-chloro-1-[(2,4,6-trimethylphenyl)methyl]indole-2-carboxamide] |
| +++ (“+++” means <3 uM) | Cc1cccc(C)c1Cn1nc(-c2ccccc2N(C)C)cc1C(=O)NS(=O)(=O)c1ccccc1 [Compound 128, N-(benzenesulfonyl)-5-[2-(dimethylamino)phenyl]-2-[(2,6-dimethylphenyl)methyl]pyrazole-3-carboxamide] |
